Measurements reported in patent US20240166703A1, “ANTI-INFLAMMATORY PEPTIDE AND METHOD OF USE THEREOF” (The Regents of the University of California, priority 2021, published 2024).

Columns and labels:
[1] = test system: B- and T-cell proliferation; details: cited from earlier work
BMDM cells = assay: Quantitation of cytokines in supernatant of cultured BMDM cells (toxicity); assay type: cell-based, C57BL/6J mice; details: 100 μM, 24 hours, without stimulating the cells
Experimental: With the approval of the UCSD and Veteran Affairs San Diego Institutional Animal Care and Use Committees (IACUC), bone marrow-derived macrophage (BMDM) cells were isolated from 6-8 weeks old C57BL/6J mice (Jackson Laboratory) followed by erythrocyte lysis with ammonium chloride, and then seeded in 12-well plates at a concentration of 1×10^6 cells/mL. Cultured cells were differentiated to macrophages with culture media containing monocyte-colony stimulating factor (M-CSF; 10 ng/mL). After 7 days of differentiation, BMDM cells were treated with TNF-α (10 ng/mL) or LPS ([…]) with or without TAT-NEMO^ActPep, TAT-NEMO^ActPep6G, or MLN120B.
BMDM cels were pre-incubated with or without 100 μM TAT-NEMO^ActPep or MLN120B for 24 hours. Negative control cells were treated with 1×PBS or DMSO at the same concentrations as those present in either TAT-NEMO^ActPep or MLN120B, respectively. IL-1β and TNF-α levels were measured from 20 μL supernatant of cultured BMDM cells using U-PLEX mouse cytokine assay kit (Meso Scale Diagnostics) following the manufacturer's protocol. […] Experiments were performed in triplicate.
Further, the potentially toxic effects of a high concentration (100 μM) dose of NEMO^ActPep were tested on IL-1β production in BMDMs without stimulating the cells. […]

mice = details: mouse, in vivo; cited from earlier work

Question: Which “B- and T-cell proliferation” value [1] does the source give for `COc1c(Cl)cc2c([nH]c3cnccc32)c1NC(=O)c1cccnc1C` [MLN120B] here?
Answer: block B- and T-cell proliferation

Question: And the “TNF-α expression / basal levels in BMDM supernatant” value (BMDM cells)?
Answer: reduced basal levels of TNF-α

Question: And the “production of IL-1β in BMDM supernatant” value (BMDM cells)?
Answer: significantly induced production of mature IL-1β

Question: And the neutrophilia in mice (mice)?
Answer: promote neutrophilia

Question: And the “septic shock in mice” value (mice)?
Answer: cause septic shock
